Tests used:
GR and FLI1 = GR and FLI1 (Homo sapiens, UniProt P04150); conditions: combination of DEX (1 μM) and RU486 (1 μM)
Procedure: (§1) (A) The scheme presents the full length Gaussia luciferase protein, along with either the amino-terminal segment (Gluc1), which was fused to an ETS family transcription factor, or the carboxyl terminal segment (Gluc2), which was fused to GR. Amino acid numbers are indicated. cDNAs encoding most members of the ETS family (16 members altogether) were cloned downstream to Gluc1. […] (B) HEK-293T cells (6×10^3) were seeded in 96-well plates. On the next day, cells were transfected with combinations of the Gluc1 plasmid, encoding a fused ETS family member, and the Gluc2 plasmid encoding a fused full-length GR. […] Cells were then lysed and luminescence was determined in biological triplicates. […] (D and E) HEK-293T cells were seeded in 100-mm dishes. Once they reached sub-maximal density (70%), cells were starved overnight for serum factors. […] Cell extracts were then processed for co-immunoprecipitation assays, in which the endogenous FLI1 or ERG protein was immunoprecipitated using a specific antibody, and immunoblotting was performed using an antibody against GR. EB, empty beads; C, solvent control. Images shown are representative of three biological replicates.
(A) HEK-293T cells (6×10^3) were seeded in 96-well plates. On the next day, the cells were transfected with combinations of the Gluc1 plasmid, encoding fused FLI1 or ERG, and the Gluc2 plasmid encoding GR. […] Cells were then lysed and luminescence was determined in each sample. Luminescence of vehicle-treated cells was used for normalization. […] (B) HEK-293T cells were seeded on coverslips in 6-well plates. […] Images were processed using the Zeiss ZEN2011 software. […] Bars, 20 μm.
(§2) Protein-fragment complementation assays (PCA): PCA was performed as previously described.

GR and ETV4 = GR and ETV4 (Homo sapiens, UniProt P04150); conditions: combination of DEX (1 μM) and RU486 (1 μM)
Procedure: as §1, §2

GR and PU.1 = GR and PU.1 (Homo sapiens, UniProt P04150); conditions: combination of DEX (1 μM) and RU486 (1 μM)
Procedure: as §1, §2

GR and EWS-FLI1 [1] = molecular target: T1, GR and EWS-FLI1 (Homo sapiens, UniProt P04150); conditions: A673 cells
Procedure: Images were processed using the Zeiss ZEN2011 software. […] Bars, 20 μm.
Proximity ligation assay (PLA), extraction of cells, co-immunoprecipitation and cell migration/invasion assays: These assays were performed exactly as recently reported.

CHLA9 and RD-ES cells [2] = test: Transwell migration assay of ES cells; type: cell-based; conditions: DEX 1 μM, RU486 1 μM, D06 10 μM; 20 hours
Procedure: (§3) (A) CHLA9 cells were seeded in 100-mm dishes. Once they reached sub-maximal density, cells were starved overnight for serum factors. […] Cells were then extracted and the lysates were processed for co-immunoprecipitation assays using an antibody against GR followed by immunobloting that used an antibody against EWS. The image shown is representative of 3 biological replicates. Signals were quantified and normalized (see numbers below each lane). EB, empty beads. […] (C-D) CHLA9 cells were seeded on the upper faces of either Transwell migration chambers or Matrigel-coated invasion chambers, and further incubated for 20 hours in full medium. Control siRNAs or siRNAs specific to either GR or EWS-FLI1 were added to cells 24 hours prior to seeding, and both cell migration and invasion were measured 20 hours later. […] Cells that reached the lower faces of the chambers were fixed and stained. Shown are representative images of stained cells. The bar plots show quantification, using ImageJ, of the area covered by cells. *, p≤0.05, **, p≤0.005. Bars, 500 μm. […] The bar plots show quantification, using ImageJ, of the area covered by cells. *, p≤0.05, **, p≤0.005. […]
(§4) (A) RD-ES cells were seeded in 100-mm dishes. […] Cell migration/invasion was determined 20 hours later.

CHLA9 and RD-ES cells [3] = test: Matrigel invasion assay of ES cells; type: cell-based; conditions: DEX 1 μM, RU486 1 μM, D06 10 μM; 20 hours
Procedure: as §3, §4

[4] = system: CHLA9, A673 and RD-ES cells; test: MTT cell viability assay, three ES lines; type: cell-based; conditions: increasing concentrations, 24 hours
Procedure: FIGS. 12A-F: Inhibition of GR activity decreases growth and survival of Ewing's sarcoma cells. […] (B) Increasing concentrations of D06, a non-steroidal antagonist of GR [54], were incubated with A673 cells as in A and the MTT assay was performed in triplicates. *, p<0.05. […] Note that the abundance of the endogenous form of FLI1 is much weaker than that of EWS-FLI1. […] MTT assays were performed after 48 hours of treatment. The assay was repeated twice in quadruplets. **, p<0.01, ***, p<0.001. (E) A673 cells were seeded in 100-mm dishes. […] Shown are results of an apoptosis assay performed using an annexinV/7-AAD kit (BioLegend, Inc.). Quantification of the fractions of early and late apoptotic cells is shown in bar plots. The experiment was repeated twice. (F) The indicated ES cells were sparsely seeded in 6-well plates. […] Ten days later, cells were fixed and stained with crystal violet to visualize emerging colonies. Photos are shown along with bar plots showing the quantification of colonies in 5 non-overlapping microscope fields. The experiment was repeated twice. *, p≤0.05; **, p≤0.001.
According to recent reports, the EWS-FLI1 fusion promotes cell cycle progression and inhibits apoptosis. […] Next, siRNA specific to the FLI1 region of the fusion (FIG. 12C) were analyzed in A673 cells. […]

A673 cells = test: MTT cell viability assay, A673 cells; type: cell-based; conditions: FLI1 silenced A673 cells; RU486 10 μM, 48 hours
RD-ES tumors = test: Immunoblotting of RD-ES tumor extracts; type: in vivo, SCID mice
Procedure: FIGS. 13A-B: A GR antagonist and a cortisol-lowering drug induce markers of cell death in animal models of Ewing's sarcoma. (A) RD-ES tumors presented in FIG. 6A were extracted and analyzed using immunoblotting and the indicated antibodies. Note that tumors from three different mice per group were analyzed. (B) Whole extracts prepared from the tumors presented in FIG. 6D were analyzed using immunoblotting and the indicated antibodies. Note that tumors from three different mice per group were analyzed.
ES animal model studies: All animal experiments were approved by the Weizmann Institute's Animal Care and Use Committee. RD-ES cells and A673 cells (2.5×10^6) were inoculated subcutaneously in the right legs of female SCID mice (6 weeks old). Tumor growth was monitored once every 3 days using a caliper. […] Mice were euthanized when tumor size reached 800-900 mm^3. For metastasis assays, luciferase-labeled TC-71 cells (10^6) were injected orthotopically into the tibia of female SCID mice. Once the primary tumor reached the allowed size limit, we excised the lungs and examined metastases using luciferase bioluminescence imaging.

GR and EWS-FLI1 [5] = molecular target: T1, GR and EWS-FLI1; conditions: DEX 1 μM, RU486 1 μM, 60 minutes
Procedure: as §3, §4

T1 sequence (P04150 whole entry): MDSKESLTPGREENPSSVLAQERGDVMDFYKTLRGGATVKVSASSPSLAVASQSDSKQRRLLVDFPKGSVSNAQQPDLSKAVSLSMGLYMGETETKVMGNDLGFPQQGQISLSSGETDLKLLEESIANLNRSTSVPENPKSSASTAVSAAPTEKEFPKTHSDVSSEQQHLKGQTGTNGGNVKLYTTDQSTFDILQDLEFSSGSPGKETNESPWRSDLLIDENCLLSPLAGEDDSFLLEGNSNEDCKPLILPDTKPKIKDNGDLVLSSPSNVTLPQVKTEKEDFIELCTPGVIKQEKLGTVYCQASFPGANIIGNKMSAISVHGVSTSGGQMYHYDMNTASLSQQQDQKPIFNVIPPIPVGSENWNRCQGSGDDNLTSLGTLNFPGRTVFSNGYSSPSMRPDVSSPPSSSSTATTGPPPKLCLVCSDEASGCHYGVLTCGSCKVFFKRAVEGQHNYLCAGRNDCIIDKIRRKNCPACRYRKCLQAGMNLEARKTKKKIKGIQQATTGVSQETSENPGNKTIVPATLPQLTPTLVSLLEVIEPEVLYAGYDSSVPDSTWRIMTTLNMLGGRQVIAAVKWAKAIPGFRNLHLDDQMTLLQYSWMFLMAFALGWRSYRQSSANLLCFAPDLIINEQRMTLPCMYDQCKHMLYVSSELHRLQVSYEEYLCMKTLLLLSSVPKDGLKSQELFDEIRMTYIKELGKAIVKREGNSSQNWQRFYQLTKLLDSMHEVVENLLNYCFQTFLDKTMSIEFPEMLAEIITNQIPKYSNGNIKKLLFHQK
Chain of GR and ETV4 (P04150 whole entry): as above
Chain of GR and PU.1 (P04150 whole entry): as above
Chain of GR and FLI1 (P04150 whole entry, the tested form may be a part): as the sequence (P04150 whole entry) above

CC#C[C@]1(O)CC[C@H]2[C@@H]3CCC4=CC(=O)CCC4=C3[C@@H](c3ccc(N(C)C)cc3)C[C@@]21C [RU486, Mifepristone]
effect on DEX-induced physical interaction between GR and FLI1 (PCA) (GR and FLI1): significantly inhibited | effect on DEX-induced physical interaction between GR and ETV4 (PCA) (GR and ETV4): only a trend was noted | effect on DEX-induced physical interaction between GR and PU.1 (PCA) (GR and PU.1): significantly inhibited | GR/EWS-FLI1 protein-protein interactions (PLA) (GR and EWS-FLI1 [1]): blocked | cell migration (CHLA9 and RD-ES cells [2]): inhibited | matrix invasion (CHLA9 and RD-ES cells [3]): inhibited | survival of ES cell lines (MTT) [4]: dose-dependent reduction | fraction of metabolically active cells (MTT) after EWS-FLI1 knockdown (A673 cells): further reduced | AKT survival pathway in tumors (RD-ES tumors): inhibited | LC3B-I abundance in tumors (RD-ES tumors): increased abundance | activation of caspase 3 in tumors (RD-ES tumors): no clear activation | larger isoform of BIM in tumors (RD-ES tumors): up-regulation | p21 abundance in tumors (RD-ES tumors; three mice per group): increased abundance | p27 abundance in tumors (RD-ES tumors; three mice per group): increased abundance | GR/EWS-FLI1 co-immunoprecipitation, CHLA9 cells (GR and EWS-FLI1 [5]; CHLA9 cells): completely | GR/EWS-FLI1 co-immunoprecipitation, RD-ES cells (GR and EWS-FLI1 [5]; RD-ES cells): partially

Source: patent US20210275545A1, “METHOD OF TREATING CANCER PREFERABLY CHARACTERIZED BY EXPRESSION OF A FUSION PROTEIN COMPRISING A MEMBER OF THE E-TWENTY-SIX FAMILY BY ADMINISTERING AN AGENT THAT INHIBITS THE SYNTHESIS AND/OR ACTIVITY OF CORTISOL” (Yeda Research and Development Co. Ltd., priority 2018, published 2021)
